Our source for the IC50 values is patent US8466156B2, “2-phenyl-4-cyclopropyl-pyrimidine derivatives” (Actelion Pharmaceuticals Ltd., priority 2008, dated 2013).

This experiment deals with T1, human P2Y12 receptor (Homo sapiens, UniProt Q9H244).
T1 construct: expressed in transfected cells; host or cells: Chinese Hamster Ovary (CHO) cells
As to the kind of experiment: P2Y12 receptor binding assay (displacement of tritium-labeled 2-methyl-S-ADP on CHO cells). The following applies: CHO cells with recombinant expression of the human P2Y12 receptor, 2 hours at RT. The procedure: P2Y12 Receptor Binding Assay
Chinese Hamster Ovary (CHO) cells with recombinant expression of the human P2Y12 receptor were cultured in 24 well cell-culture plates. Cells were washed three times with binding buffer (50 mM Tris pH 7.4, 100 mM NaCl, 1 mM EDTA, 0.5% BSA). The cells were then incubated with 0.5 ml per well binding buffer containing tritium-labeled 2-methyl-thio-adenosine 5′-diphosphate (2-methyl-S-ADP) (between 100'000 and 300'000 dpm per well) and various concentrations of test compounds. After incubation at RT for 2 hours, cells were washed three times with binding buffer. Then, cells were solubilized by addition of 0.5 ml solubilization buffer (SDS, NaOH, EDTA). The content of each well was then transferred into beta-counter vials and 2.0 ml of Ultima Gold Scintillation liquid was added.

The mark [1] stands for this setting: comparison with reference compounds of WO 2006/114774.

T1 sequence (Q9H244 whole entry): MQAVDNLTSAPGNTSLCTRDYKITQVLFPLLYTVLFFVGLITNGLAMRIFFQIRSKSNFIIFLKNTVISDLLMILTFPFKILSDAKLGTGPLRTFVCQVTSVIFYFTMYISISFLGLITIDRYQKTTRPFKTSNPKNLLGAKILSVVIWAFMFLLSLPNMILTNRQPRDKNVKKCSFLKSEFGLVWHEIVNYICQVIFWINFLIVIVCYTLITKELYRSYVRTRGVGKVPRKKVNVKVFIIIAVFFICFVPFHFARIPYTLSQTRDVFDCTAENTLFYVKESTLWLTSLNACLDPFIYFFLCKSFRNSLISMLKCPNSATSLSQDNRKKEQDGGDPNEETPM

Broadly, the IC50 is the concentration at which inhibition is half-maximal. Turning to `CCCCOC(=O)N1CCN(C(=O)[C@H](CCC(=O)O)NC(=O)c2cc([C@@H]3C[C@H]3COC)nc(-c3ccccc3)n2)CC1` (mixture of isomers) [Example 2, 4-((S)-4-carboxy-2-{[6-(trans-2-methoxymethyl-cyclopropyl)-2-phenyl-pyrimidine-4-carbonyl]-amino}-butyryl)-piperazine-1-carboxylic acid butyl ester], where the note is “Example compounds table”, the half-inhibitory concentration (IC50) came to 3 nM.

`CCCCOC(=O)N1CCN(C(=O)[C@H](CCC(=O)O)NC(=O)c2cc([C@@H]3C[C@@H]3COC)nc(-c3ccccc3)n2)CC1` (mixture of isomers) [Example 6, 4-((S)-4-carboxy-2-{[6-(cis-2-methoxymethyl-cyclopropyl)-2-phenyl-pyrimidine-4-carbonyl]-amino}-butyryl)-piperazine-1-carboxylic acid butyl ester]: the IC50 (Example compounds table) came out at 9 nM.

With `CCCCOC(=O)N1CCN(C(=O)[C@H](CCC(=O)O)NC(=O)c2cc(C3CC3)nc(-c3ccccc3)n2)CC1` [Example 1, 4-{(S)-4-carboxy-2-[(6-cyclopropyl-2-phenyl-pyrimidine-4-carbonyl)-amino]-butyryl}-piperazine-1-carboxylic acid butyl ester], the IC50 (Example compounds table) turned out to be 6 nM. The same measure, in the same setting: under `CCCCOC(=O)N1CCN(C(=O)[C@H](CCC(=O)O)NC(=O)c2cc([C@H]3C[C@@H]3COC)nc(-c3ccccc3)n2)CC1` [Example 3, 4-((S)-4-carboxy-2-{[6-((1S,2S)-2-methoxymethyl-cyclopropyl)-2-phenyl-pyrimidine-4-carbonyl]-amino}-butyryl)-piperazine-1-carboxylic acid butyl ester] stands 5 nM; under `CCCCOC(=O)N1CCN(C(=O)[C@H](CCC(=O)O)NC(=O)c2cc([C@H]3C[C@@H]3CO)nc(-c3ccccc3)n2)CC1` [Example 4, 4-((S)-4-carboxy-2-{[6-((1S,2S)-2-hydroxymethyl-cyclopropyl)-2-phenyl-pyrimidine-4-carbonyl]-amino}-butyryl)-piperazine-1-carboxylic acid butyl ester], 4 nM; under `CCCCOC(=O)N1CCN(C(=O)[C@H](CCC(=O)O)NC(=O)c2cc([C@H]3C[C@@H]3COC)nc(-c3ccc(F)cc3)n2)CC1` [Example 5, 4-((S)-4-carboxy-2-{[2-(4-fluoro-phenyl)-6-((1S,2S)-2-methoxymethyl-cyclopropyl)-pyrimidine-4-carbonyl]-amino}-butyryl)-piperazine-1-carboxylic acid butyl ester], 2 nM. Consider `CCOC(=O)N1CCN(C(=O)[C@H](CCC(=O)O)NC(=O)c2cc(C3CC3)nc(-c3ccccc3)n2)CC1` [Example 90 of WO 2006/114774, reference compound], for which the IC50 under setting [1] was found to be 43 nM.

Consider `CCOC(=O)N1CCN(C(=O)[C@H](CCC(=O)O)NC(=O)c2cc(C3CC3CO)nc(-c3ccccc3)n2)CC1` (some centres unmarked) [Example 500 of WO 2006/114774, reference compound], for which the IC50 under setting [1] came to 23 nM.
